As a reminder, the IC50 is the concentration needed to halve the response being measured.

The structures appear in SMILES notation. Structures can show the parent of a compound that is named as a salt.

The subject of test [1] is MLKL phosphorylation in HT29-L23 human colorectal adenocarcinoma cells. The experiment in a line: MLKL Phosphorylation High-Content Assay. It counts as cell-based. Particulars: Homo sapiens, 6 h, necroptosis induced with TNFα, SMAC mimetic and Z-VAD, read-out: pMLKL (IC50). Summed up:
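HT29-L23 cells pretreated 30 min at 37 °C with compound (6.25 to 0.106 μM final), then necroptosis induced with TNFα 35 ng/mL, SMAC mimetic 700 nM and Z-VAD 140 nM for 6 h. Fixed cells immunostained for MLKL pS358 and imaged; IC50 and Ymax from 4-parameter logistic fit.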

Test [2] has as its target His-GST-TVMV-hRIPK1(1-324) (Homo sapiens (Human), UniProt Q13546). The experiment in a line: RIPK1 HTRF Binding Assay. Particulars: HTRF binding, 1 h at rt; read-out: RIPK1 (IC50). The gist of the method:
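HTRF probe-displacement binding: 1 nM His-GST-TVMV-hRIPK1(1-324) (baculovirus construct), 90.6 nM probe, 0.2 nM anti-GST-Tb in 20 mM HEPES, 10 mM MgCl2, 0.015% Brij-35, 4 mM DTT, 0.05 mg/mL BSA. Incubated 1 h at rt; FRET 520/495 nm ratio, inhibition relative to DMSO-only wells.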
(In general: Time-resolved FRET reads energy transfer from a long-lived donor to a nearby acceptor.)

Sequence of His-GST-TVMV-hRIPK1(1-324) (Q13546 1-324): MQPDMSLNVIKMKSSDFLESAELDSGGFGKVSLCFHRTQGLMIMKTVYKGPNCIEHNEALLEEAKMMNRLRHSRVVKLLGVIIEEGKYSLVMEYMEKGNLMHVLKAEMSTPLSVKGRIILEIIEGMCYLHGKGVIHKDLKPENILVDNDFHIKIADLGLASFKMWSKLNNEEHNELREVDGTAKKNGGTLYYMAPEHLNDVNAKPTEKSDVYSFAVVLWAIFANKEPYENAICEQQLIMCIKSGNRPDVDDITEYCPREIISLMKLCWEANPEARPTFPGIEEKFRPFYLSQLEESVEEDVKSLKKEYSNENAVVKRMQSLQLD

With `[2H]C([2H])([2H])Oc1nc(C)c(-c2ccc3nc(NC(C)=O)cn3n2)cc1C(=O)NC([2H])([2H])c1cc(OC(F)(F)F)ccc1F` [Example 175, 5-{2-acetamidoimidazo[1,2-b]pyridazin-6-yl}-N-{[2-fluoro-5-(trifluoromethoxy)phenyl](deutero)methyl}-2-(deutero)methoxy-6-methylpyridine-3-carboxamide], the values for the 50% inhibitory concentration (IC50) in test [1] and in test [2] were 16 nM and 4 nM, respectively.

For `[2H]C([2H])([2H])Oc1nc(C)c(-c2ccc3nc(NC(C)=O)cn3n2)cc1C(=O)NCc1ccc(F)c(F)c1OCC1CC1` [Example 176, N-{[2-(cyclopropylmethoxy)-3,4-difluorophenyl]methyl}-5-{2-acetamidoimidazo[1,2-b]pyridazin-6-yl}-2-(deutero)methoxy-6-methylpyridine-3-carboxamide], the figures for the IC50 in test [1] and in test [2] were 12 nM and 10 nM, respectively.

As to `[2H]C([2H])([2H])Oc1nc(C)c(-c2ccc3nc(NC(C)=O)cn3n2)cc1C(=O)NCc1cc(F)cc(F)c1OCC1CC1` [Example 177, N-{[2-(cyclopropylmethoxy)-3,5-difluorophenyl]methyl}-5-{2-acetamidoimidazo[1,2-b]pyridazin-6-yl}-2-(deutero)methoxy-6-methylpyridine-3-carboxamide], the IC50 in test [1] came to 3 nM; in test [2] it was 2 nM.

Turning to `[2H]C([2H])([2H])Oc1nc(C)c(-c2ccc3nc(NC(C)=O)cn3n2)cc1C(=O)NCc1ccccc1OC(F)(F)F` [Example 178, 5-{2-acetamidoimidazo[1,2-b]pyridazin-6-yl}-2-(deutero) methoxy-6-methyl-N-{[2-(trifluoromethoxy)phenyl]methyl} pyridine-3-carboxamide], the values for the concentration for half-maximal inhibition (IC50) in test [1] and in test [2] were 20 nM and 4 nM, respectively.

With `[2H]C([2H])([2H])Oc1nc(C)c(-c2ccc3nc(NC(C)=O)cn3n2)cc1C(=O)NCc1cc(OC(F)(F)F)ccc1F` [Example 179, 5-{2-acetamidoimidazo[1,2-b]pyridazin-6-yl}-N-{[2-fluoro-5-(trifluoromethoxy)phenyl]methyl}-2-(deutero)methoxy-6-methylpyridine-3-carboxamide], the half-maximal inhibitory concentration (IC50) in test [1] was 13 nM; in test [2], 3 nM.

For `[2H]C([2H])([2H])Oc1nc(C)c(-c2ccc3nc(NC(C)=O)cn3n2)cc1C(=O)NCc1cc(OCC2CC2)ccc1F` [Example 180, N-{[5-(cyclopropyhnethoxy)-2-fluorophenyl]methyl}-5-{2-acetamidoimidazo[1,2-b]pyridazin-6-yl}-2-(deutero)methoxy-6-methylpyridine-3-carboxamide], the results for the IC50 in test [1] and in test [2] were 18 nM and 4 nM, respectively.

As to `Cc1ncc(-c2ccc3nc(NC(=O)CO)cn3n2)cc1C(=O)N[C@@H](C)c1cc(OC(F)(F)F)ccc1F` [Example 181, N-[(1S)-1-[2-fluoro-5-(trifluoromethoxy)phenyl]ethyl]-5-[2-(2-hydroxyacetamido)imidazo[1,2-b]pyridazin-6-yl]-2-methylpyridine-3-carboxamide], the half-maximal inhibitory concentration (IC50) in test [1] turned out to be 171 nM; in test [2], 103 nM.

As for `Cc1ncc(-c2ccc3nc(NC(=O)CO)cn3n2)cc1C(=O)N[C@H](C)c1cc(C(F)(F)F)ccc1F` [Example 182, N-[(1R)-1-[2-fluoro-5-(trifluoromethyl)phenyl]ethyl]-5-[2-(2-hydroxyacetamido)imidazo [1,2-b]pyridazin-6-yl]-2-methylpyridine-3-carboxamide, TFA], the half-maximal inhibitory concentration (IC50) in test [1] worked out at 455 nM; in test [2] it was 272 nM.

Take `Cc1ncc(-c2ccc3nc(NC(=O)CO)cn3n2)cc1C(=O)NCc1cc(C(F)(F)F)ccc1F` [Example 183, N-{[2-fluoro-5-(trifluoromethyl)phenyl]methyl}-5-[2-(2-hydroxyacetamido)imidazo [1,2-b]pyridazin-6-yl]-2-methylpyridine-3-carboxamide]: the concentration for half-maximal inhibition (IC50) in test [1] came out at 392 nM; in test [2], 166 nM.

`[2H]C([2H])(NC(=O)c1cc(-c2ccc3nc(NC(=O)CO)cn3n2)cnc1C)c1cc(F)cc(F)c1OC1CCOCC1` [Example 184, N-{[3,5-difluoro-2-(oxan-4-yloxy)phenyl](deutero)methyl}-5-[2-(2-hydroxyacetamido)imidazo [1,2-b]pyridazin-6-yl]-2-methylpyridine-3-carboxamide]: the IC50 in test [1] worked out at 177 nM; in test [2], 9 nM.

Regarding `Cc1ncc(-c2ccc3nc(NC(=O)CO)cn3n2)cc1C(=O)N[C@H](C)c1cc(OC(F)(F)F)ccc1F` [Example 185, N-[(1R)-1-[2-fluoro-5-(trifluoromethoxy)phenyl]ethyl]-5-[2-(2-hydroxyacetamido)imidazo [1,2-b]pyridazin-6-yl]-2-methylpyridine-3-carboxamide], the IC50 in test [1] stood at 81 nM; in test [2] it was 30 nM.

For the molecule `CC(=O)Nc1cn2nc(-c3cnc(C)c(C(=O)NCc4cc(F)cc(F)c4OC4CCCOC4)c3)ccc2n1` (stereo not shown) [Example 186, N-{[3,5-difluoro-2-(oxan-3-yloxy)phenyl]methyl}-5-{2-acetamidoimidazo[1,2-b]pyridazin-6-yl}-2-methylpyridine-3-carboxamide], the half-maximal inhibitory concentration (IC50) was found to be 96 nM in test [1] and 15 nM in test [2].

As to `CC(=O)Nc1cn2nc(-c3cnc(C)c(C(=O)NCc4cc(F)cc(F)c4O[C@H]4CCOC4)c3)ccc2n1` [Example 187, N-({3,5-difluoro-2-[(3S)-oxolan-3-yloxy]phenyl}methyl)-5-{2-acetamidoimidazo [1,2-b]pyridazin-6-yl}-2-methylpyridine-3-carboxamide], the IC50 turned out to be 148 nM in test [1] and 18 nM in test [2].

On to `CC(=O)Nc1cn2nc(-c3cnc(C)c(C(=O)NCc4cc(F)cc(F)c4OC4CCOC(C)C4)c3)ccc2n1` (stereo not shown) [Example 188, N-({3,5-difluoro-2-[(2-methyloxan-4-yl)oxy]phenyl}methyl)-5-{2-acetamidoimidazo [1,2-b]pyridazin-6-yl}-2-methylpyridine-3-carboxamide], for which the half-maximal inhibitory concentration (IC50) in test [1] stood at 217 nM; in test [2], 22 nM.

Turning to `CC(=O)Nc1cn2nc(-c3cnc(C)c(C(=O)NCc4cc(F)cc(F)c4OC4CC(C)OC(C)C4)c3)ccc2n1` (stereo not shown) [Example 189, N-({2-[(2,6-dimethyloxan-4-yl)oxy]-3,5-difluorophenyl}methyl)-5-{2-acetamidoimidazo [1,2-b]pyridazin-6-yl}-2-methylpyridine-3-carboxamide], the IC50 came out at 208 nM in test [1] and 91 nM in test [2].

As to `CC(=O)Nc1cn2nc(-c3cnc(C)c(C(=O)NCc4c(F)cccc4OCC(F)(F)F)c3)ccc2n1` [Example 190, 5-{2-acetamidoimidazo[1,2-b]pyridazin-6-yl}-N-{[2-fluoro-6-(2,2,2-trifluoroethoxy)phenyl]methyl}-2-methylpyridine-3-carboxamide], the IC50 in test [1] is 35 nM; in test [2], 23 nM.

In the case of `CC(=O)Nc1cn2nc(-c3cnc(C)c(C(=O)NCc4cc(C(F)(F)F)ccn4)c3)ccc2n1` [Example 191, 5-{2-acetamidoimidazo[1,2-b]pyridazin-6-yl}-2-methyl-N-{[4-(trifluoromethyl)pyridin-2-yl]methyl}pyridine-3-carboxamide], the IC50 in test [1] was 86 nM; in test [2], 938 nM.

Consider `CC(=O)Nc1cn2nc(-c3cnc(C)c(C(=O)NCc4ccccc4OCC(F)(F)F)c3)ccc2n1` [Example 193, 5-{2-acetamidoimidazo[1,2-b]pyridazin-6-yl}-2-methyl-N-{[2-(2,2,2-trifluoroethoxy)phenyl]methyl}pyridine-3-carboxamide], for which the IC50 is 61 nM in test [1] and 56 nM in test [2].

For `CC(=O)Nc1cn2nc(-c3cnc(C)c(C(=O)NCc4cccc(OCC(F)(F)F)c4)c3)ccc2n1` [Example 194, 5-{2-acetamidoimidazo[1,2-b]pyridazin-6-yl}-2-methyl-N-{[3-(2,2,2-trifluoroethoxy)phenyl]methyl}pyridine-3-carboxamide], the IC50 is 141 nM in test [1] and 100 nM in test [2].

Regarding `CC(=O)Nc1cn2nc(-c3cnc(C)c(C(=O)NCc4cc(F)ccc4OCC(F)(F)F)c3)ccc2n1` [Example 195, 5-{2-acetamidoimidazo[1,2-b]pyridazin-6-yl}-N-{[5-fluoro-2-(2,2,2-trifluoroethoxy)phenyl]methyl}-2-methylpyridine-3-carboxamide], the IC50 came to 188 nM in test [1] and 43 nM in test [2].

As to `[2H]C([2H])([2H])[C@H](NC(=O)c1cc(-c2ccc3nc(NC(C)=O)cn3n2)cnc1C)c1cc(C(F)(F)F)ccc1F` [Example 196, 5-{2-acetamidoimidazo[1,2-b]pyridazin-6-yl}-N-[(1S)-1-[2-fluoro-5-(trifluoromethyl)phenyl](2,2,2-deutero)ethyl]-2-methylpyridine-3-carboxamide], the IC50 was found to be 5 nM in test [1] and 45 nM in test [2].

Take `[2H]C([2H])([2H])[C@@H](NC(=O)c1cc(-c2ccc3nc(NC(C)=O)cn3n2)cnc1C)c1cc(C(F)(F)F)ccc1F` [Example 197, 5-{2-acetamidoimidazo[1,2-b]pyridazin-6-yl}-N-[(1R)-1-[2-fluoro-5-(trifluoromethyl)phenyl](2,2,2-deutero)ethyl]-2-methylpyridine-3-carboxamide]: the IC50 was found to be 23 nM in test [1] and 72 nM in test [2].

Turning to `[2H]C([2H])([2H])[C@H](NC(=O)c1cc(-c2ccc3nc(NC(C)=O)cn3n2)cnc1C)c1cc(OC(F)(F)F)ccc1F` [Example 198, 5-{2-acetamidoimidazo[1,2-b]pyridazin-6-yl}-N-[(1S)-1-[2-fluoro-5-(trifluoromethoxy)phenyl](2,2,2-deutero)ethyl]-2-methylpyridine-3-carboxamide], the IC50 was 14 nM in test [1] and 16 nM in test [2].

Source of the values: patent publication US11440913B2, “Aminoimidazopyridazines as kinase inhibitors” (BRISTOL-MYERS SQUIBB COMPANY, priority 2017, dated 2022).
